Test results taken from patent publication US9271978B2 (Zenith Epigenetics Corp., priority 2012, dated 2016).

Legend:
[1] = system: human AML MV-4-11 (CRL-9591) cells; assay: Inhibition of cell proliferation in MV4-11 cells; type: cell-based; design: key: Active: Compounds with an IC50 value less than 30 μM were deemed to be active.; Not Active: Compounds with an IC50 value less than 30 μM were deemed to be active; conditions: human AML MV-4-11 cells, 72 h; active = IC50 <30 μM
Procedure, shortened: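 Exponentially growing MV-4-11 cells (5×10^4/well) were treated immediately with two-fold dilutions of compound from 30 μM to 0.2 μM, in triplicate, for 72 h at 37° C, 5% CO2. Viability was measured by MTS absorbance at 490 nm after 3–4 h. Proliferation relative to DMSO after blank correction gave IC50.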

[2] = target: T1, second bromodomain of Brd2 (BRD2(2)) (Homo sapiens, UniProt P25440); assay: Inhibition of tetra-acetylated histone H4 binding to Brd2 bromodomain 2 (TR-FRET); design: key: Active: Compounds with an IC50 value less than 30 μM were deemed to be active.; Not Active: Compounds with an IC50 value less than 30 μM were deemed to be active; conditions: tetra-acetylated histone H4 peptide, active = IC50 <30 μM
T1 construct: made in house; host or cells: E. coli BL21 (DE3)
T1 sequence (P25440 344-453 limits assumed): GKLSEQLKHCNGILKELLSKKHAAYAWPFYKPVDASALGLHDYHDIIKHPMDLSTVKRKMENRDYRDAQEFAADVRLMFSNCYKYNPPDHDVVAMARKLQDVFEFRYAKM
Procedure, shortened: (§1)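 N-terminally His-tagged bromodomains (200 nM), expressed in E. coli, were incubated with biotinylated tetra-acetylated histone H4 peptide (25-50 nM), Eu-cryptate streptavidin and XL665 anti-His antibody in HEPES pH 7.4 buffer with KF, 0.2% DMSO, 2 h at room temperature. Inhibition read as decreased 665/620 nm TR-FRET; IC50 from dose-response curves.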

hIL-6 mRNA = assay: Inhibition of hIL-6 mRNA transcription in U937 cells; type: cell-based, human; design: key: Active: Compounds with an IC50 value less than 30 μM were deemed to be active.; Not Active: Compounds with an IC50 value less than 30 μM were deemed to be active; conditions: LPS stimulation, active = IC50 <30 μM
Procedure, shortened: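 U937 cells differentiated 3 days with 60 ng/mL PMA, pretreated 1 h with compound, then stimulated with 1 ug/mL E. coli LPS for 3 h at 37° C. hIL-6 mRNA quantified by one-step qRT-PCR, Ct normalized to internal control, expressed as fold induction relative to control.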

[3] = target: T2, Brd4 bromodomain 1 (BRD4(1)) (Homo sapiens, UniProt O60885); assay: Inhibition of tetra-acetylated histone H4 binding to Brd4 bromodomain 1 (TR-FRET); design: key: Active: Compounds with an IC50 value less than 30 μM were deemed to be active.; Not Active: Compounds with an IC50 value less than 30 μM were deemed to be active; conditions: tetra-acetylated histone H4 peptide, active = IC50 <30 μM
T2 construct: Illustrative results with the first bromodomain of Brd4; made in house; host or cells: E. coli BL21 (DE3)
Procedure, shortened: as §1

c-myc = assay: Inhibition of c-myc expression in MV4-11 cells (mRNA, real-time PCR); type: cell-based; design: key: Active: Compounds with an IC50 value less than 30 μM were deemed to be active.; Not Active: Compounds with an IC50 value less than 30 μM were deemed to be active; conditions: Human AML MV4-11 cells, 3 h incubation
Procedure, shortened: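 MV4-11 cells (2.5×10^4) treated with compound or 0.1% DMSO for 3 h at 37 °C. c-myc mRNA measured by RT real-time PCR duplexed with cyclophilin. IC50 from dose–response curve.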

ApoA-I mRNA = assay: Up-regulation of hApoA-1 mRNA transcription in Huh7 cells; type: cell-based, human; design: key: Active: Compounds with an EC170 value less than 30 μM were deemed to be active; conditions: 48 h treatment, ApoA-I mRNA by real-time PCR, Active = EC170 less than 30 μM
Procedure, shortened: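 Huh7 cells treated with compound for 48 h. ApoA-I mRNA was then quantified in captured mRNA by one-step real-time RT-PCR. Fold induction calculated from Ct values relative to the matching DMSO control; EC170 is the concentration for 170% of control expression.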

COc1cc(-c2cn(Cc3ccccc3)c(=O)c3ccccc23)cc(OC)c1OC [Example 168, 2-Benzyl-4-(3,4,5-trimethoxyphenyl)isoquinolin-1(2H)-one]
Cell Proliferation activity (IC50 <30 μM) [1]: Active | FRET activity (IC50 <30 μM) BRD2(2) [2]: Active | melting point: 166 to 168 °C | IL-6 activity (IC50 <30 μM) (hIL-6 mRNA): Not Active | FRET activity (IC50 <30 μM) BRD4(1) [3]: Not Active | c-myc activity (IC50 <30 μM) (c-myc): Not Active

Cc1noc(C)c1-c1cn(Cc2ccccc2)c(=O)c2cccnc12 [Example 173, 6-Benzyl-8-(3,5-dimethylisoxazol-4-yl)-1,6-naphthyridin-5(6H)-one]
FRET activity (IC50 <30 μM) BRD2(2) [2]: Active | melting point: 192 to 195 °C | FRET activity (IC50 <30 μM) BRD4(1) [3]: Active

Cc1noc(C)c1-c1cn(Cc2ccccc2)c(=O)c2ccccc12 [Example 167, 2-Benzyl-4-(3,5-dimethylisoxazol-4-yl)isoquinolin-1(2H)-one]
Cell Proliferation activity (IC50 <30 μM) [1]: Active | FRET activity (IC50 <30 μM) BRD2(2) [2]: Active | melting point: 139 to 141 °C | IL-6 activity (IC50 <30 μM) (hIL-6 mRNA): Active | FRET activity (IC50 <30 μM) BRD4(1) [3]: Active | c-myc activity (IC50 <30 μM) (c-myc): Not Active

COc1cc(Nc2nn(Cc3ccccc3)c(=O)c3ccccc23)cc(OC)c1OC [Example 171, 2-Benzyl-4-(3,4,5-trimethoxyphenylamino)-2H-phthalazin-1-one]
Cell Proliferation activity (IC50 <30 μM) [1]: Active | FRET activity (IC50 <30 μM) BRD2(2) [2]: Active | melting point: 206 to 207 °C | IL-6 activity (IC50 <30 μM) (hIL-6 mRNA): Active | FRET activity (IC50 <30 μM) BRD4(1) [3]: Active | c-myc activity (IC50 <30 μM) (c-myc): Active

Cc1noc(C)c1-c1cn(Cc2ccccc2)c(=O)c2cnccc12 [Example 175, 2-Benzyl-4-(3,5-dimethylisoxazol-4-yl)-2,7-naphthyridin-1(2H)-one]
FRET activity (IC50 <30 μM) BRD2(2) [2]: Active | melting point: 174 to 177 °C | FRET activity (IC50 <30 μM) BRD4(1) [3]: Active

Cc1noc(C)c1-c1cn(Cc2ccccc2)c(=O)c2ncccc12 [Example 174, 7-Benzyl-5-(3,5-dimethylisoxazol-4-yl)-1,7-naphthyridin-8(7H)-one]
FRET activity (IC50 <30 μM) BRD2(2) [2]: Active | melting point: 168 to 170 °C | FRET activity (IC50 <30 μM) BRD4(1) [3]: Active

Cc1noc(C)c1-c1cn(Cc2ccccc2)c(=O)c2ccncc12 [Example 176, 2-Benzyl-4-(3,5-dimethylisoxazol-4-yl)-2,6-naphthyridin-1(2H)-one]
FRET activity (IC50 <30 μM) BRD2(2) [2]: Active | melting point: 159 to 161 °C | FRET activity (IC50 <30 μM) BRD4(1) [3]: Active

COc1cc(-c2ccc(=O)n(Cc3ccc(NC(C)=O)cc3)n2)cc(OC)c1OC [Example 82, N-(4-((6-Oxo-3-(3,4,5-trimethoxyphenyl)pyridazin-1(6H)-yl)methyl)phenyl)acetamide]
Cell Proliferation activity (IC50 <30 μM) [1]: Not Active | FRET activity (IC50 <30 μM) BRD2(2) [2]: Active | ApoA-1 activity (EC170 <30 μM) (ApoA-I mRNA): Active | IL-6 activity (IC50 <30 μM) (hIL-6 mRNA): Active | FRET activity (IC50 <30 μM) BRD4(1) [3]: Active | c-myc activity (IC50 <30 μM) (c-myc): Not Active

COc1ccc(-c2cn(Cc3ccccc3)c(=O)c3ccccc23)cc1OC [Example 166, 2-Benzyl-4-(3,4-dimethoxyphenyl)isoquinolin-1(2H)-one]
FRET activity (IC50 <30 μM) BRD2(2) [2]: Not Active | melting point: 174 to 176 °C | FRET activity (IC50 <30 μM) BRD4(1) [3]: Active

Cc1noc(C)c1-c1ccc(=O)n(C(C)c2ccccc2)c1 (stereo not drawn) [Example 125, 5-(3,5-Dimethylisoxazol-4-yl)-1-(1-phenylethyl)pyridin-2(1H)-one]
Cell Proliferation activity (IC50 <30 μM) [1]: Active | FRET activity (IC50 <30 μM) BRD2(2) [2]: Active | ApoA-1 activity (EC170 <30 μM) (ApoA-I mRNA): Active | IL-6 activity (IC50 <30 μM) (hIL-6 mRNA): Active | FRET activity (IC50 <30 μM) BRD4(1) [3]: Active | c-myc activity (IC50 <30 μM) (c-myc): Active

COc1cc(-c2ccc(=O)n(Cc3ccccc3C#N)n2)cc(OC)c1OC [Example 118, 2-((6-Oxo-3-(3,4,5-trimethoxyphenyl)pyridazin-1(6H)-yl)methyl)benzonitrile]
Cell Proliferation activity (IC50 <30 μM) [1]: Active | FRET activity (IC50 <30 μM) BRD2(2) [2]: Active | ApoA-1 activity (EC170 <30 μM) (ApoA-I mRNA): Active | IL-6 activity (IC50 <30 μM) (hIL-6 mRNA): Active | FRET activity (IC50 <30 μM) BRD4(1) [3]: Active | c-myc activity (IC50 <30 μM) (c-myc): Not Active

COc1cc(-c2ccc(=O)n(Cc3ccccc3)c2)cc(OC)c1OC [Example 52, 1-Benzyl-5-(3,4,5-trimethoxyphenyl)pyridin-2(1H)-one]
Cell Proliferation activity (IC50 <30 μM) [1]: Not Active | FRET activity (IC50 <30 μM) BRD2(2) [2]: Active | ApoA-1 activity (EC170 <30 μM) (ApoA-I mRNA): Active | IL-6 activity (IC50 <30 μM) (hIL-6 mRNA): Active | FRET activity (IC50 <30 μM) BRD4(1) [3]: Active | c-myc activity (IC50 <30 μM) (c-myc): Not Active

Cc1noc(C)c1-c1ccc(=O)n(Cc2ccc(OC(F)(F)F)cc2)c1 [Example 5, 5-(3,5-Dimethylisoxazol-4-yl)-1-(4-(trifluoromethoxy)benzyl)pyridin-2(1H)-one]
Cell Proliferation activity (IC50 <30 μM) [1]: Active | FRET activity (IC50 <30 μM) BRD2(2) [2]: Active | ApoA-1 activity (EC170 <30 μM) (ApoA-I mRNA): Active | IL-6 activity (IC50 <30 μM) (hIL-6 mRNA): Active | FRET activity (IC50 <30 μM) BRD4(1) [3]: Active | c-myc activity (IC50 <30 μM) (c-myc): Active

COc1cc(-c2ccc(=O)n(Cc3ccccc3)n2)ccc1O [Example 83, 2-Benzyl-6-(4-hydroxy-3-methoxyphenyl)pyridazin-3(2H)-one]
Cell Proliferation activity (IC50 <30 μM) [1]: Active | FRET activity (IC50 <30 μM) BRD2(2) [2]: Active | ApoA-1 activity (EC170 <30 μM) (ApoA-I mRNA): Active | IL-6 activity (IC50 <30 μM) (hIL-6 mRNA): Active | FRET activity (IC50 <30 μM) BRD4(1) [3]: Active | c-myc activity (IC50 <30 μM) (c-myc): Not Active

COc1ccc(Nc2ccc(=O)n(Cc3ccccc3)n2)nc1OC [Example 99, 2-Benzyl-6-((5,6-dimethoxypyridin-2-yl)amino)pyridazin-3(2H)-one]
Cell Proliferation activity (IC50 <30 μM) [1]: Not Active | FRET activity (IC50 <30 μM) BRD2(2) [2]: Active | ApoA-1 activity (EC170 <30 μM) (ApoA-I mRNA): Active | IL-6 activity (IC50 <30 μM) (hIL-6 mRNA): Active | FRET activity (IC50 <30 μM) BRD4(1) [3]: Active | c-myc activity (IC50 <30 μM) (c-myc): Active

Cc1noc(C)c1-c1ccc(=O)n(Cc2cccc(C(F)F)c2)c1 [Example 50, 1-(3-(Difluoromethyl)benzyl)-5-(3,5-dimethylisoxazol-4-yl)pyridin-2(1H)-one]
Cell Proliferation activity (IC50 <30 μM) [1]: Active | FRET activity (IC50 <30 μM) BRD2(2) [2]: Active | ApoA-1 activity (EC170 <30 μM) (ApoA-I mRNA): Active | IL-6 activity (IC50 <30 μM) (hIL-6 mRNA): Active | FRET activity (IC50 <30 μM) BRD4(1) [3]: Active | c-myc activity (IC50 <30 μM) (c-myc): Active
